Assay [1] addresses T1, Quiescin sulfhydryl oxidase 1 (QSOX1) (Homo sapiens, UniProt O00391).
T1 construct: amino acids 33–546 of QSOX1-S, N-terminal poly-histidine tag (rQSOX1)
T1 sequence (O00391 33-546): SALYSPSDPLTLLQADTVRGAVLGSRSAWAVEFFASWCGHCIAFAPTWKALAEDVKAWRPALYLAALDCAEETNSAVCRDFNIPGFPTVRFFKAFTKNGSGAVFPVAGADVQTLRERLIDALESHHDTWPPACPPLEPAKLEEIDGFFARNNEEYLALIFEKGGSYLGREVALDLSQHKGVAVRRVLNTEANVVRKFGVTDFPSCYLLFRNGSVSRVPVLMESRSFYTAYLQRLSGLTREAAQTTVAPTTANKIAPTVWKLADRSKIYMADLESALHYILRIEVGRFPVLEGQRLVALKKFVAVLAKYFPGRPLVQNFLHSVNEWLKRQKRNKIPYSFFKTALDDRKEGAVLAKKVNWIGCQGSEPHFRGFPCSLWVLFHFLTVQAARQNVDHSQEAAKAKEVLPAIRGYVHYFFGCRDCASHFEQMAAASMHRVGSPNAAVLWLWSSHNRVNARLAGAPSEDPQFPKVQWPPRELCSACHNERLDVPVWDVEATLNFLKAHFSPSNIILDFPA
Nature of the assay: intact-protein LC-ESI-MS of covalent adducts and maleimide protection assay; IC50 from purified-enzyme luminescent H2O2 assay, confirmed by HVA fluorescence assay. The format is biochemical.

In another assay the target is glucose oxidase (GOx) (Aspergillus niger, UniProt P13006). Nature of the assay: luminescent (ROS-Glo) H2O2-detection enzyme assay, counter-screen. The format is biochemical.
Chain of glucose oxidase (GOx) (P13006 17-605): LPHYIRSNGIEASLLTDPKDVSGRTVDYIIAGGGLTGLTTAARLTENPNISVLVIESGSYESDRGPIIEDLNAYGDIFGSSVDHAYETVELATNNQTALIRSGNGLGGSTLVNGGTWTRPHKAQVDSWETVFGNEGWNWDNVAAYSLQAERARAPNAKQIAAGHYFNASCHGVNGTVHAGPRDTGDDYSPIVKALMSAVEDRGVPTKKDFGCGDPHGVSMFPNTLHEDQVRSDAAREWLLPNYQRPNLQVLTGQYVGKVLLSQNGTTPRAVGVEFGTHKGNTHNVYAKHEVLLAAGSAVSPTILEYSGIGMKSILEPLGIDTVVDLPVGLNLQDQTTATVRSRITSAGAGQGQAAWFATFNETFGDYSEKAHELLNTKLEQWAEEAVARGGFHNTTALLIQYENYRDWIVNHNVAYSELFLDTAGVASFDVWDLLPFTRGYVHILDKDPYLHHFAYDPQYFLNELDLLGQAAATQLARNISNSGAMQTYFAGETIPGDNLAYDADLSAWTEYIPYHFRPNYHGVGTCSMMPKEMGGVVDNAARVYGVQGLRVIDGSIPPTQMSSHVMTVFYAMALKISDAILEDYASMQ

With `O=c1c2ccccc2[se]n1-c1ccccc1` [ebselen, 2-phenyl-1,2-benzisoselenazol-3(2H)-one], the IC50 in assay [1] was 5.4 µM; at glucose oxidase (GOx), 20.5 µM.
